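Each compound was tested at five concentrations against cells in 96-well plates for 48 hours. TGI: concentration producing complete growth inhibition.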
Tests used:
Assay in all cases: NCI tumour cell line growth inhibition, 48 h
[1] = system: NCI-H522 lung
[2] = system: NCI-H460 lung
[3] = system: SK-MEL-2 melanoma
[4] = system: HT29 colon
[5] = system: IGROV1 ovarian
[6] = system: SK-OV-3 ovarian
[7] = system: SNB-19 CNS
[8] = system: A549 NSCLC
[9] = system: SW-620 colon
[10] = system: MCF7 breast
[11] = system: K-562 leukemia
[12] = system: 786-0 renal
[13] = system: HCC-2998 colon
[14] = system: CAKI-1 renal
[15] = system: EKVX NSCLC
[16] = system: HS 578T breast
[17] = system: NCI-H23 lung
[18] = system: M14 melanoma
[19] = system: BT-549 breast
[20] = system: HL-60(TB) leukemia
[21] = system: PC-3 prostate
[22] = system: A498 renal
[23] = system: UACC-257 melanoma
[24] = system: T-47D breast
[25] = system: SF-268 CNS
[26] = system: UACC-62 melanoma
[27] = system: HOP-62 NSCLC
[28] = system: NCI/ADR-RES ovarian
[29] = system: SK-MEL-5 melanoma
[30] = system: RPMI-8226 leukemia
[31] = system: SK-MEL-28 melanoma
[32] = system: MALME-3M melanoma
[33] = system: DU-145 prostate
[34] = system: KM12 colon
[35] = system: MOLT-4 leukemia
[36] = system: MDA-MB-435
[37] = system: COLO 205 colon
[38] = system: HCT-15 colon
[39] = system: OVCAR-4 ovarian
[40] = system: ACHN renal
[41] = system: SF-295 CNS
[42] = system: HCT-116 colon
[43] = system: SN12C renal
[44] = system: CCRF-CEM leukemia
[45] = system: HOP-92 NSCLC
[46] = system: NCI-H226 lung
[47] = system: SF-539 CNS
[48] = system: OVCAR-5 ovarian
[49] = system: RXF 393 renal
[50] = system: MDA-N
[51] = system: OVCAR-8 ovarian
[52] = system: OVCAR-3 ovarian
[53] = system: LOX IMVI melanoma
[54] = system: SNB-75 CNS
[55] = system: UO-31 renal
[56] = system: SR leukemia
[57] = system: U251 CNS
[58] = system: MDA-MB-231 breast
[59] = system: TK-10 renal

Measured: TGI

COc1ccc(C)cc1Nc1nnc(-c2ccc(N)cc2)s1
> 100 µM: [1] | [2] | [3] | [4] | [5] | [6] | [7] | [8] | [9] | [10] | [11] | [12] | [13] | [14] | [15] | [16] | [17] | [18] | [19] | [20] | [21] | [22] | [23] | [24] | [25] | [26] | [27] | [28] | [29] | [31] | [32] | [33] | [34] | [35] | [36] | [37] | [38] | [39] | [40] | [41] | [42] | [43] | [44] | [45] | [46] | [47] | [48] | [49] | [50] | [51] | [52] | [53] | [54] | [55] | [56]
98.4 µM: [30]

CC(=O)CCC[C@H](C)[C@@H](O)[C@@H]1O[C@H]([C@@]2(C)CCC(=O)O2)C[C@H]1C(=O)O
> 100 µM: [1] | [2] | [3] | [4] | [57] | [5] | [6] | [7] | [8] | [9] | [10] | [11] | [12] | [13] | [14] | [15] | [16] | [17] | [19] | [21] | [23] | [24] | [25] | [26] | [27] | [28] | [29] | [30] | [31] | [33] | [58] | [34] | [35] | [36] | [37] | [38] | [39] | [40] | [41] | [42] | [43] | [44] | [46] | [59] | [47] | [48] | [49] | [50] | [51] | [52] | [53] | [54] | [55] | [56]

CCOC(=O)c1ccc(N=c2oc3ccc(OC)cc3cc2-c2nc3ccccc3[nH]2)cc1
8.58 µM: [46]
43.2 µM: [51]
80.4 µM: [29]
6.03 µM: [47]
> 100 µM: [1] | [2] | [3] | [4] | [57] | [5] | [6] | [7] | [8] | [9] | [10] | [11] | [12] | [13] | [14] | [15] | [16] | [17] | [18] | [19] | [20] | [21] | [23] | [24] | [25] | [26] | [27] | [28] | [30] | [31] | [32] | [33] | [58] | [34] | [35] | [36] | [37] | [38] | [39] | [40] | [41] | [42] | [43] | [44] | [45] | [59] | [48] | [49] | [50] | [52] | [53] | [55] | [56]
65.2 µM: [54]
